Publication PMC5393024, “Discovery and characterization of natural tropolones as inhibitors of the antibacterial target CapF from Staphylococcus aureus” (Scientific Reports, 2015)

Experiments:
[1] = target: holo-CapF (reconstituted with Zn^2+) (Staphylococcus aureus, UniProt A0A0H3JP37); assay: ITC binding to CapF reconstituted with Zn2+ (holo-CapF)
From the text: (§1) Because tropolone and its analogs have been described as metal chelators in proteins, we anticipated that binding of the inhibitor to CapF is governed by the Zn^2+ ion present in the cupin domain[12]. To confirm this hypothesis, we performed two different types of experiments. First, we determined the binding properties of 3-isopropenyl-tropolone to apo-CapF (i.e. Zn^2+-depleted CapF) and to holo-CapF (reconstituted with Zn^2+) by isothermal titration calorimetry (ITC). The stoichiometry is consistent with a 1:1 binding model.
(§2) Figure 3 Binding of 3-isopropenyl-tropolone to CapF requires Zn^2+. CapF (150 μM) reconstituted with Zn^2+ was titrated with 1.65 mM inhibitor in the absence (a) or the presence (b) of 1 mM EDTA. The upper panels correspond to the titration data, and the lower panels to the integrated binding isotherms. (c) Binding competition assay. CapF (1.0 μM) reconstituted with Zn^2+ in the presence of the Zn^2+-sensitive dye FluoZin-3 (1.0 μM) was titrated with 3-isopropenyl-tropolone (λEX = 490 nm; λEM = 520 nm).
Binding constants and thermodynamic parameters of the interaction between CapF and fragment compounds were determined with an iTC200 instrument (GE Healthcare) at 25 °C. Samples were equilibrated in a buffer composed of 10 mM HEPES (pH 7.4) and 150 mM NaCl supplemented with 5% (v/v) DMSO. CapF at 150–270 μM was titrated with compounds at 0.5–1.65 mM. Analysis of the data was performed with ORIGIN7 using a one-site binding model.
Figure S8. Binding isotherms of compounds with CapF as determined by ITC. (a) tropone, (b) 2-Cl-tropone, (c) tropolone, (d) 4-isopropyl-tropolone. Concentration of CapF in the cell was 150 µM, except in panel (a) where it was 270 µM. Concentration of compounds was 1.65 mM, except in panel (a) where it was 0.5 mM. Titrations were performed in an iTC200 instrument at 25 °C.
Data analysis was carried out with ORIGIN.

[2] = system: apo-CapF (Zn^2+-depleted); assay: ITC binding to Zn2+-depleted CapF (1 mM EDTA); set-up: species or system Staphylococcus aureus; conditions: 150 μM CapF, 1.65 mM inhibitor
From the text: as §1, §2
Binding constants and thermodynamic parameters of the interaction between CapF and fragment compounds were determined with an iTC200 instrument (GE Healthcare) at 25 °C. Samples were equilibrated in a buffer composed of 10 mM HEPES (pH 7.4) and 150 mM NaCl supplemented with 5% (v/v) DMSO. CapF at 150–270 μM was titrated with compounds at 0.5–1.65 mM. […]

[3] = system: CapF reconstituted with Zn^2+; assay: FluoZin-3 binding competition assay; set-up: species or system Staphylococcus aureus
Procedure: as §2
Second, the fluorescence of the Zn^2+-specific indicator FluoZin-3[19][20] was examined in the presence of CapF. The signal of FluoZin-3 increases dramatically in the presence of Zn^2+ ions when the metal is accessible to the dye. […] In contrast, the fluorescence of FluoZin-3 with apo-CapF, or with holo-CapF in the presence of 3-isopropenyl-tropolone, was negligible.
Fluorescence measurements were carried out using the Zn^2+-sensitive dye FluoZin-3 (Life Technologies) in a buffer composed of 10 mM HEPES, 150 mM NaCl (pH 7.4) supplemented with 5% (v/v) DMSO at 25 °C. The fluorescence intensities were measured in a plate reader (PHERAstar, BMG Labtech, Durham, NC) with excitation and emission wavelengths set to 490 nm and 520 nm, respectively.
Figure S3. Zn2+ governs the binding of inhibitor to CapF. […]
from ZnCl2) with 1.65 mM 3-isopropenyl-tropolone. (b) Fluorescence of the Zn2+-sensitive dye […]

CapE = assay: HPLC assay employing only CapE; type: biochemical, Staphylococcus aureus; conditions: CapF not present
Procedure: For that purpose, an HPLC-based assay monitoring the consumption of substrate and the appearance of product was employed (Fig. 2b)[12]. Whereas in the absence of 3-isopropenyl-tropolone the substrate was converted into product with nearly quantitative yield (91%), in the presence of 1 mM 3-isopropenyl-tropolone the peaks corresponding to substrate and product were largely absent (their combined areas were <18%). Instead, a large peak corresponding to the byproduct generated by the enzyme CapE under thermodynamic control was observed (80% yield as judged from the area under the curve). To confirm that inhibition of 3-isopropenyl-tropolone is specific for CapF we performed an additional experiment employing only CapE, which is the enzyme generating the substrate for CapF in the functional assay (Supplementary Information Figure S2).
Figure S2. Elution profile of compounds after incubation of the substrate UDP-D-GlcNAc with
CapE in the absence (red line) and presence (black line) of 3-isopropenyl-tropolone. In this
experiment CapF was not present. Experimental conditions are described in the Methods section.
The blue, red and green triangles indicate the elution peaks of product, substrate, and by-product,
(§3) (1 picture or pasted object on this page, not shown here)

WT CapF = assay: DSC thermal stability of WT CapF; type: binding, Staphylococcus aureus; conditions: 24 μM protein, 240 μM inhibitor
Procedure: (§4) Thermal stability of CapF was examined by DSC in a ultrasensitive VP-capillary micro-calorimeter (Microcal). Prior to the experiment the protein was equilibrated in a buffer composed of 50 mM HEPES (pH 7.5), 50 mM NaCl and 5% DMSO. The concentration of protein and inhibitor were adjusted to 24 μM and 240 μM, respectively. The samples were heated between 10 and 110 °C at a scan rate of 1 °C/min. Data analysis was carried out with ORIGIN7 using a two-state transition model.

CapFΔ57-70 = assay: DSC thermal stability of CapFΔ57-70; type: binding, Staphylococcus aureus; conditions: 24 μM protein, 240 μM inhibitor
Procedure: as §4
Figure S6. Thermal stability of CapF examined with DSC. (a) CapFΔ57-70, and (b) CapFΔ57-70
in the presence of 3-isopropenyl-tropolone. Concentration of CapF and inhibitor was 24 µM and
240 µM, respectively. Experimental data and fitting curves are represented in black and red lines,
as §3

Chain of holo-CapF (reconstituted with Zn^2+) (A0A0H3JP37 entry or part of it): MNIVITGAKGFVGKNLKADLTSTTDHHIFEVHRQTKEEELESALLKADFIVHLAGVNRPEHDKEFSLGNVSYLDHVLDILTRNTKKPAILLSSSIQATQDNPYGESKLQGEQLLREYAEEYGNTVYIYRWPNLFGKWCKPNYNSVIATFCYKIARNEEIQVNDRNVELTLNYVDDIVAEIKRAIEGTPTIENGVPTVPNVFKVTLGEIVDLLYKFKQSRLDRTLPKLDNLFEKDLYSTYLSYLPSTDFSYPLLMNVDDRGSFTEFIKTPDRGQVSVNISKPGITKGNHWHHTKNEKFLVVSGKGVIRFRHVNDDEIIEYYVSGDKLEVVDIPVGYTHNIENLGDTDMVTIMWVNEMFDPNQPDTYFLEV

## C=C(C)c1ccccc(=O)c1O [3-isopropenyl-tropolone]
[1]
  Kd: 27 ± 12 µM
[1]; ITC, 25 °C
  n (binding stoichiometry): 1.2 ± 0.1
  ΔH°: -3.4 ± 0.9 kcal/mol
  −TΔS°: -2.8 ± 1.1 kcal/mol
[1]; from ITC binding free energy
  ligand efficiency (LE = −ΔG/HAC): 0.52 kcal/mol
[2]
  binding to apo-CapF by ITC: does not bind
[3]; CapF 1.0 μM, FluoZin-3 1.0 μM, 25 °C
  inflexion point of FluoZin-3 fluorescence signal vs concentration of compound: 51 µM
[3]; CapF 1 µM, compound 1.0 mM
  fluorescence of FluoZin-3 with holo-CapF in the presence of compound: negligible
CapE
  HPLC profile of the reaction products of CapE in presence of inhibitor: not altered
WT CapF
  ΔTM (decrease in thermal stability): 5.2 ± 0.4 °C
WT CapF; WT CapF alone 59.9 ± 0.2
  TM: 54.7 ± 0.2 °C
CapFΔ57-70
  ΔTM (decrease in thermal stability): 6.3 ± 0.2 °C
CapFΔ57-70; CapFΔ57-70 alone 60.7 ± 0.1
  TM: 54.4 ± 0.1 °C
